Key:
[1] = target: Autotaxin (ENPP2) (Rattus norvegicus) (UniProt Q64610); test: Inhibition of LPA in rat plasma after 18 hrs by LC-MS/MS analysis
[2] = target: Autotaxin (ENPP2) (Homo sapiens) (UniProt Q13822); test: Inhibition of LPA in human plasma after 18 hrs by LC-MS/MS analysis

With `C[C@@H](c1ccc2ccc(O[C@H]3CC[C@@H](C(F)(F)F)CC3)c(C(F)(F)F)c2c1)N1C2CCC1CC(C(=O)O)C2` (some centres not stated) as the compound, how does the IC50 [1] read?
The IC50 was 47 nM.

What about the IC50 [2] of the same compound?
Its IC50 is 53 nM.
